The source of these data is ChEMBL document CHEMBL1201862, “PubChem BioAssay data set” (2004).

Broadly, the EC50 is the midpoint of the concentration-response curve. One may read the IC50 as the point on the concentration scale where inhibition reaches its midpoint. The AC50 is the concentration giving half of the maximal activity seen.

Each structure is given as a SMILES string. The source made the active and inactive calls.

A short description of test [1]: C. albicans growth with fluconazole, confirmation, fluorescence, retest (AID 2467). Format: functional, cell-based.
In test [2] the target is T1, Calpain-2 catalytic subunit (Sus scrofa, UniProt P43367).
T1 sequence (P43367 whole entry): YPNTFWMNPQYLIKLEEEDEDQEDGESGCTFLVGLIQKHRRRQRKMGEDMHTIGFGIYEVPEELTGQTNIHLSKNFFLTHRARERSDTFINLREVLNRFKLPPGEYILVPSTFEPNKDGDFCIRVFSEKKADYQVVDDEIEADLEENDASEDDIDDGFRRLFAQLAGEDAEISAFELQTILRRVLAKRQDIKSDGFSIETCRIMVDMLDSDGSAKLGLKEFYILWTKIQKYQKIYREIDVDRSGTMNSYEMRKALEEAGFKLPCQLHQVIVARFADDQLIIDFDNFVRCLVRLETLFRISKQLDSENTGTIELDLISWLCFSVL
Put plainly: pig calpain II inhibitor potency, dose response, biochemical, fluorogenic peptide substrate (AID 1420). It counts as functional.

For test [3], the target named is T2, Serine/threonine-protein phosphatase (Candida dubliniensis (strain CD36 / CBS 7987 / NCPF 3949 / NRRLY-17841) (Yeast), UniProt B9W6M3).
T2 sequence (B9W6M3 whole entry): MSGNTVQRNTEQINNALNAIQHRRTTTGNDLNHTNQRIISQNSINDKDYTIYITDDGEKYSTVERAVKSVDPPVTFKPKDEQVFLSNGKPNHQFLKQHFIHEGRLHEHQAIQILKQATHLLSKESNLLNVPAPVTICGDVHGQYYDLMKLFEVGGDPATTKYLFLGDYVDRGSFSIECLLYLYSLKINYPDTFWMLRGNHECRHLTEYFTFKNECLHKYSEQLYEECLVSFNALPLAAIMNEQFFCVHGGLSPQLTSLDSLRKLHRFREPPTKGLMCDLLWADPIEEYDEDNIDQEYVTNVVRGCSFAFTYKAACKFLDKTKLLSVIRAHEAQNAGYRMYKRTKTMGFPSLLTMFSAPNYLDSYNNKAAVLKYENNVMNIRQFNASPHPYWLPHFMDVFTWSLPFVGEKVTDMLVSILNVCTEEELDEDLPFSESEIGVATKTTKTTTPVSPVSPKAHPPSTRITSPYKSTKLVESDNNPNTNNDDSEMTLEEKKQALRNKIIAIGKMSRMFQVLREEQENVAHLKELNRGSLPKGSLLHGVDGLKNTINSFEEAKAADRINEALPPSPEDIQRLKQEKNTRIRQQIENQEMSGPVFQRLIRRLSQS
Put plainly: calcineurin pathway inhibitors in yeast reporter, dose response, S. cerevisiae, CDRE-lacZ, luminescence, secondary (AID 2388).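 Further: yeast reporter cells carrying a calcineurin-responsive lacZ construct stimulated with calcium chloride; luminescent beta-galactosidase reporter signal in whole cells rather than isolated phosphatase activity; potency for inhibition where a drop in reporter signal means calcineurin blockade.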 It counts as functional, cell-based.

A short description of test [4]: NIH-3T3 fibroblast cytotoxicity, dose response, cytotoxicity control, cell-based, fluorescence, Alamar Blue, secondary assay (AID 2327).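 Further: NIH-3T3 mouse fibroblasts cultured with fluconazole at 8 µg/mL.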 Format: functional.
The target of test [5] is ATP-dependent molecular chaperone HSP82 (Candida albicans (strain WO-1) (Yeast), UniProt C4YTQ8). The test is described as follows: loss of DOC-induced GRE-beta-galactosidase reporter signal, dose response, Hsp90 inhibitor project, S. cerevisiae, luminescence (AID 2400).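 Further: beta-galactosidase luminescence from glucocorticoid response element reporter as proxy for Hsp90 function; inhibitor potency where signal loss means Hsp90 inhibition.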 Format: functional, cell-based.
Sequence of ATP-dependent molecular chaperone HSP82 (C4YTQ8 whole entry): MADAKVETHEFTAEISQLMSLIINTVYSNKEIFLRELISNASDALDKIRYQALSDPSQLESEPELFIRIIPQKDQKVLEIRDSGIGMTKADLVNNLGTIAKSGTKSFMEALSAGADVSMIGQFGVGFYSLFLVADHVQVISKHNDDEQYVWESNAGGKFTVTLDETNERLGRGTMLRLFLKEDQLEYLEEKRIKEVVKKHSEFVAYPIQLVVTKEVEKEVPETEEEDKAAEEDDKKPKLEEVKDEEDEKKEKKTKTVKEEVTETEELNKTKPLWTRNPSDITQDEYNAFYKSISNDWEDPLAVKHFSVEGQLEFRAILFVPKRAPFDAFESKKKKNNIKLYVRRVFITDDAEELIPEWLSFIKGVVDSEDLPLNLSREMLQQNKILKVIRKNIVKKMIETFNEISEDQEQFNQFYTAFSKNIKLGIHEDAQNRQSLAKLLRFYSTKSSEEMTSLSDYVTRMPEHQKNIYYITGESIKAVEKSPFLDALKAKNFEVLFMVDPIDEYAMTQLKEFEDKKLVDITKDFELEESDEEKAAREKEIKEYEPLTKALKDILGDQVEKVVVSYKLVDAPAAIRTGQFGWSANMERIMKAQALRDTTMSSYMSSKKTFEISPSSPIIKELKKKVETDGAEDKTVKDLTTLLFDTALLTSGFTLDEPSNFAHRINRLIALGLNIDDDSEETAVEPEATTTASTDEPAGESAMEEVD
Test [6] concerns the target Glucose-6-phosphate 1-dehydrogenase (Homo sapiens, UniProt P11413). The test is described as follows: human G6PD enzyme inhibitors, dose response, selectivity assay for P. falciparum G6PD inhibitor project, biochemical, fluorescence (AID 504792). It counts as functional.
Test [7] in a line: cytotoxicity toward NIH3T3 fibroblasts, dose response, counter-screen, cell-based, ATP luminescence, mouse fibroblasts (AID 2010).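 Further: cells exposed to compound for about 90 hours before reading.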 Format: functional. In general terms: The purpose of a counterscreen is to sort out artefacts and off-target activity.
Test [8] in a line: cytotoxicity in MIN6 insulinoma cells, dose response, cytotoxicity control, cell-based, mouse insulinoma (AID 2122).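 Further: confirmatory high-throughput counterscreen run to flag cytotoxic compounds; mouse MIN-6 beta cells carrying an insulin promoter eGFP reporter.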 It counts as functional.
The nature of test [9]: insulin promoter down-regulators in MIN6 cells, imaging, high-content screening, mouse beta cells (AID 1628). Format: functional.
Test [10] can be described thus: inhibitors of intracellular T. cruzi replication, confirmation, NIH3T3 host cells, beta-gal luminescence (AID 2044).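 Further: intracellular parasites grown in NIH/3T3 mouse fibroblasts as host cells; luminescent beta-galactosidase reporter signal from transgenic T. cruzi replicating inside host cells; inhibitors lower the luminescence signal.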 It counts as functional, cell-based.
Test [11] deals with T3, Ubiquitin-conjugating enzyme E2 N (Homo sapiens, UniProt P61088).
T3 sequence (P61088 whole entry): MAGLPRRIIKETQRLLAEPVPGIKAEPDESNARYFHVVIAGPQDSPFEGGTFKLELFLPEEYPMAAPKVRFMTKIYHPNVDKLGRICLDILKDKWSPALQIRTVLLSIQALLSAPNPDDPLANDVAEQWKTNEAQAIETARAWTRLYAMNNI
It counts as functional.

Test [12] can be described thus: microbe, parasite or virus in culture. It counts as functional. As to conditions: Mycobacterium tuberculosis.
Test [13] deals with HEK293. The test is described as follows: inhibitors of LMP1-driven NF-kB reporter, dose response, cell-based, HEK293, luciferase, cherry-pick (AID 588343). As to conditions: Homo sapiens. It counts as functional.
A short description of test [14]: Luminescence Cell-Based Dose Response HTS to Identify Inhibitors of 5'UTR Stem-Loop Driven Prion Protein mRNA Translation in H4 Neuroglioblastoma Cells. [Related pubchem assays: 1827 (Project Summary), 1813 (Primary HTS)]. Format: functional.
Test [15] in a line: inhibitors of firefly luciferase expression or activity, dose response, H4 neuroglioma cells, luminescence (AID 1990). It counts as functional, cell-based.
The nature of test [16]: inhibitors of SNCA 5'UTR-driven reporter translation, confirmation, H4 neuroglioma cells, luminescence (AID 1988). It counts as functional, cell-based.
For test [17], the target named is T4, Short transient receptor potential channel 4 (Mus musculus, UniProt Q9QUQ5).
T4 sequence (Q9QUQ5 whole entry): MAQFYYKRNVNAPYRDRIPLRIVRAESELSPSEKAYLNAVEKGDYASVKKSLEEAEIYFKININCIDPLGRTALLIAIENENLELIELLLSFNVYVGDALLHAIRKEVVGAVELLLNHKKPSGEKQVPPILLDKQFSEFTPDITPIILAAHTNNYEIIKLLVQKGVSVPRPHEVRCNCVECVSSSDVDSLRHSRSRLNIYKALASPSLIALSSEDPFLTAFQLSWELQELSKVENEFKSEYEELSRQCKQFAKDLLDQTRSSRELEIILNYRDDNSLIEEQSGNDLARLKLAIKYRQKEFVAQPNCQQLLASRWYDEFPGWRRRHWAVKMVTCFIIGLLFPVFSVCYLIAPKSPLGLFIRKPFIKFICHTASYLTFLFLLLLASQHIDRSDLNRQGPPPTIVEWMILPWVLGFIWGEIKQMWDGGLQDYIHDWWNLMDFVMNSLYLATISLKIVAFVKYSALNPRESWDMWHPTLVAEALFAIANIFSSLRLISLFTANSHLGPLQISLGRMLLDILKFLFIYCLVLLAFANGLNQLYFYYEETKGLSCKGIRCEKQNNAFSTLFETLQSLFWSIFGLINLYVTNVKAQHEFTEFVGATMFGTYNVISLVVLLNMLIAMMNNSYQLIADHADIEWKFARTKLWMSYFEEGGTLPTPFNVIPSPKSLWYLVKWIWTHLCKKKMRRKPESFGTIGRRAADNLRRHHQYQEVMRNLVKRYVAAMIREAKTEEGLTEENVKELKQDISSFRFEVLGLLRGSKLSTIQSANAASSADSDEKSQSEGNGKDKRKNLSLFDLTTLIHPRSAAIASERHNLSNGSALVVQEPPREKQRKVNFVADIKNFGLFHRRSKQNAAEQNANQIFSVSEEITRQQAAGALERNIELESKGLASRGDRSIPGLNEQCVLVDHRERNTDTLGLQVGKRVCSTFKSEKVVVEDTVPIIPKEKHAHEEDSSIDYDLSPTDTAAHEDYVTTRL
Put plainly: mouse TRPC4 channel inhibitors, dose response, cell-based, HEK293 TRPC4/mu-opioid, Fluo-4 calcium (AID 434942).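 Further: potency of inhibitors blocking the TRPC4 calcium response.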 It counts as functional.

Test [18] addresses T4, Short transient receptor potential channel 4. Put plainly: mouse TRPC4 channel activators, dose response, cell-based, HEK293 TRPC4/mu-opioid, Fluo-4 calcium (AID 434937). It counts as functional.
The subject of test [19] is Escherichia coli. Put plainly: microbe, parasite or virus in culture.
Test [20] concerns the target T5, Protein skinhead-1 (Caenorhabditis elegans, UniProt P34707).
T5 sequence (P34707 whole entry): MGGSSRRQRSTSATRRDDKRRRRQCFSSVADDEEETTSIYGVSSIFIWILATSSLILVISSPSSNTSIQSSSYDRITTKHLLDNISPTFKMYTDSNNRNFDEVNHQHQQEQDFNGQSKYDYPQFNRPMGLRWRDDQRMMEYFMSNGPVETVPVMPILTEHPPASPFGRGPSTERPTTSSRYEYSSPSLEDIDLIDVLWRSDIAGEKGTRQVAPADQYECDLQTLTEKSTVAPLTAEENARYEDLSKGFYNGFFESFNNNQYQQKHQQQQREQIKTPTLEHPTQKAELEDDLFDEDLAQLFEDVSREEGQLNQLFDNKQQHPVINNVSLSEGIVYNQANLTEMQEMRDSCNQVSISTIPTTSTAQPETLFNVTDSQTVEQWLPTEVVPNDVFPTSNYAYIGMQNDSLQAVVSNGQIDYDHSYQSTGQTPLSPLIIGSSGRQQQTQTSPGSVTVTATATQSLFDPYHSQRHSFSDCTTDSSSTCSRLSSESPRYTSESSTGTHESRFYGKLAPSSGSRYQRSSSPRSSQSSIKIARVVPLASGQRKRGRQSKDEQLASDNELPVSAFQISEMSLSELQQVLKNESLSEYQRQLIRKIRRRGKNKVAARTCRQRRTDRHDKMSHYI
It counts as functional.

The nature of test [21]: Vero E6 cell cytotoxicity, dose response, cytotoxicity control for non-replicating M. tuberculosis project, secondary assay (AID 492998). It counts as functional, VeroE6. As to conditions: Vero C1008.
Test [22] in a line: HepG2 cell cytotoxicity, dose response, cytotoxicity control for non-replicating M. tuberculosis project (AID 489018). Format: functional. Conditions: Mycobacterium tuberculosis.
A short description of test [23]: cells. Format: functional.
Test [24] in a line: THP-1 cell cytotoxicity, dose response, cytotoxicity control for non-replicating M. tuberculosis project (AID 489025). Format: functional.

Sequence of Glucose-6-phosphate 1-dehydrogenase (P11413 whole entry): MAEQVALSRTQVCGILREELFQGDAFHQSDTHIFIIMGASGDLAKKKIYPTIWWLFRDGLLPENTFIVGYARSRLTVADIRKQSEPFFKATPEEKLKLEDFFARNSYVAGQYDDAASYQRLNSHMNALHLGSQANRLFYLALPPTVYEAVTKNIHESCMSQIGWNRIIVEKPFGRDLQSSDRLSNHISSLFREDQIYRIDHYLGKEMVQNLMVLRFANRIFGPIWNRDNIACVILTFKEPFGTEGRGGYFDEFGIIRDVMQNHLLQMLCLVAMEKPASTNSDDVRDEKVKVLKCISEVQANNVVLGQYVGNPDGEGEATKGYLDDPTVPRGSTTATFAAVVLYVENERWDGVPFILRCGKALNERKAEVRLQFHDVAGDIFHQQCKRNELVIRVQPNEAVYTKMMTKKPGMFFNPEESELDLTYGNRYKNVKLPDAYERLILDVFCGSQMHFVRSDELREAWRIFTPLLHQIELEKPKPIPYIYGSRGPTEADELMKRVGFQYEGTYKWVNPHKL

Regarding `Cc1ccc(NC(=O)c2noc(C(C)C)c2[N+](=O)[O-])cc1`, the EC50 in test [1] is 3.18 µM (active); in test [3], > 180 µM (inactive); in test [4], > 150 µM (inconclusive); in test [5], > 160 µM (inactive). Further, the IC50 in test [2] is reported as > 50 µM (not active).

Take `CCOC(=O)CSc1nnc(NC(=O)c2cccc([N+](=O)[O-])c2)s1`: the IC50 in test [6] was 43.8 µM (inactive).

For `COc1cccc(CNC(=O)CN2CCC(c3nc4cc(C)ccc4[nH]3)CC2)c1`, the EC50 in test [7] was > 60 µM (not active); in [10], 0.217 µM (active). Besides, the IC50 in [8] is 15 µM (inactive); in [9], 2 µM (active).

With `COc1cc(NCCCn2cnc(C(=O)Nc3ccc(C)c(C)c3)n2)cc(OC)c1OC`, in test [6], the IC50 is > 80 µM (inactive).

As for `Cc1ccc(-c2c(C(=O)N/N=C/c3cccs3)nnn2-c2nonc2N)cc1`, in [6], the IC50 was > 80 µM (inactive).

As to `COC(=O)c1c(N=C(S)NN2CCN(C)CC2)sc2c1CCC(C)C2` (configuration not stated), the results for the IC50 in test [11], in test [8] and in test [9] were > 20 µM (inactive), 3.07 µM (active) and 4.04 µM (active), respectively. Besides, the CC50 in test [12] was 11.6 µM (active).

With `Cn1ncc(Cl)c1C(=O)NC1CCCC1`, the AC50 in test [13] was > 350 µM (inactive).

Consider `Oc1c2c(nc3c(-c4cccc(Br)c4)cnn13)CCCC2`, for which the concentration for a half-maximal effect (EC50) in test [14] is 8.39 µM (active); in test [15] it was 11.2 µM (active); in test [16], 9.2 µM (active). For the same compound, in test [13], the AC50 was 4.49 µM (active).

As to `CN(C)C(CNC(=O)c1ccc2c(c1)S(=O)(=O)c1ccccc1C2=O)c1ccco1` (configuration not stated), the concentration giving a half-maximal response (EC50) was 4.73 µM (active) in test [17] and 0.668 µM (active) in test [18].

With `COc1ccc(Nc2nc(NCCO)nc(OC)n2)cc1`, the AC50 in test [19] was 25.5 µM (active).

Consider `CCN(CC)Cc1ccc(NC(=O)c2sc3cc(Cl)ccc3c2Cl)cc1`, for which the EC50 in test [1] is 3.87 µM (active); in test [4] it was 16.8 µM (inconclusive). In addition, the figures for the IC50 in test [20] and in test [23] were 26.3 µM (active) and 32.9 µM (active), respectively. Also, the CC50 in test [21] is 18.9 µM (active); in test [22], 11.7 µM (active); in test [24], 19.9 µM (active).

For `CCCN1CCN(C(=O)Cn2c(=O)oc3cc(S(=O)(=O)NCc4ccccc4)ccc32)CC1`, the EC50 in test [18] was 4.22 µM (active).
